The values that follow come from patent publication US10253002B2, “Compounds and methods of treating infections” (Neoculi Pty Ltd., priority 2013, dated 2019).

What all share (experiment): Broth microdilution MIC, Example 7 (NCL812 and analogues)
For orientation: Broth dilution looks for growth in wells or tubes with falling amounts of substance.

One assay relates to MRSA. The assay is classed as cell-based, Staphylococcus aureus. The conditions noted are these: 24 hours, duplicate lines per compound. Summed up: (§1)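 CLSI broth microdilution against two MRSA and two VRE strains, tested in duplicate with a third run if results differed by more than one two-fold dilution.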
The test system of the next assay is VRE. The assay is classed as cell-based, Enterococcus spp. Conditions: 24 hours, duplicate lines per compound. A digest of the protocol: as §1
In the next assay the test system is Escherichia coli. The assay is classed as cell-based. The conditions noted are these: E. coli; 24 hours; duplicate lines per compound.
Another assay relates to Pseudomonas aeruginosa. The assay is classed as cell-based. Conditions: P. aeruginosa; 24 hours; duplicate lines per compound.

On to `Cl.N=C(N/N=C/c1ccc(Cl)cc1Cl)N/N=C/c1ccc(Cl)cc1Cl` [NCL 127], for which, in the assay on MRSA, the “MIC (μg/ml) at 24 hours, MRSA 1” value was above 128 µg/mL and the “MIC (μg/ml) at 24 hours, MRSA 2” value was above 128 µg/mL. In the assay on VRE, the “MIC (μg/ml) at 24 hours, VRE 1” value was above 128 µg/mL and the “MIC (μg/ml) at 24 hours, VRE 2” value was above 128 µg/mL. For the same compound, in the assay with Escherichia coli, the “MIC (μg/ml) at 24 hours, E. coli” value is above 128 µg/mL. For the same compound, in the assay with Pseudomonas aeruginosa, the “MIC (μg/ml) at 24 hours, P. aeruginosa” value was above 128 µg/mL.

Take `Cl.N=C(N/N=C/c1c(F)c(F)c(F)c(F)c1F)N/N=C/c1c(F)c(F)c(F)c(F)c1F` [NCL 128]: in the assay on MRSA, the “MIC (μg/ml) at 24 hours, MRSA 1” value is above 128 µg/mL and the “MIC (μg/ml) at 24 hours, MRSA 2” value is above 128 µg/mL. For the same compound, in the assay with VRE, the “MIC (μg/ml) at 24 hours, VRE 1” value was above 128 µg/mL and the “MIC (μg/ml) at 24 hours, VRE 2” value was above 128 µg/mL. Further, the “MIC (μg/ml) at 24 hours, E. coli” value in the assay on Escherichia coli was above 128 µg/mL. Besides, the “MIC (μg/ml) at 24 hours, P. aeruginosa” value in the assay on Pseudomonas aeruginosa was above 128 µg/mL.

Consider `Cl.N=C(N/N=C/c1ccccc1Br)N/N=C/c1ccccc1Br` [NCL 129], for which, in the assay with MRSA, the “MIC (μg/ml) at 24 hours, MRSA 1” value was above 128 µg/mL and the “MIC (μg/ml) at 24 hours, MRSA 2” value is above 128 µg/mL. For the same compound, in the assay on VRE, the “MIC (μg/ml) at 24 hours, VRE 1” value is above 128 µg/mL and the “MIC (μg/ml) at 24 hours, VRE 2” value is above 128 µg/mL. Moreover, in the assay with Escherichia coli, the “MIC (μg/ml) at 24 hours, E. coli” value is above 128 µg/mL. Besides, the “MIC (μg/ml) at 24 hours, P. aeruginosa” value in the assay with Pseudomonas aeruginosa is above 128 µg/mL.

As to `COc1cc(C=NNC(=N)NN=Cc2cc(Br)c(OC)c(OC)c2)cc(Br)c1OC.Cl` [NCL 130], in the assay on MRSA, the “MIC (μg/ml) at 24 hours, MRSA 1” value is above 128 µg/mL and the “MIC (μg/ml) at 24 hours, MRSA 2” value is above 128 µg/mL. Moreover, in the assay with VRE, the “MIC (μg/ml) at 24 hours, VRE 1” value is above 128 µg/mL and the “MIC (μg/ml) at 24 hours, VRE 2” value is above 128 µg/mL. In the assay with Escherichia coli, the “MIC (μg/ml) at 24 hours, E. coli” value was above 128 µg/mL. In addition, in the assay with Pseudomonas aeruginosa, the “MIC (μg/ml) at 24 hours, P. aeruginosa” value was above 128 µg/mL.

`Cl.N=C(NN=Cc1cccc(Br)c1)NN=Cc1cccc(Br)c1` [NCL 131]: in the assay on MRSA, the “MIC (μg/ml) at 24 hours, MRSA 1” value was above 128 µg/mL and the “MIC (μg/ml) at 24 hours, MRSA 2” value is above 128 µg/mL. Also, in the assay on VRE, the “MIC (μg/ml) at 24 hours, VRE 1” value was determined as 4 µg/mL and the “MIC (μg/ml) at 24 hours, VRE 2” value was above 128 µg/mL. In the assay with Escherichia coli, the “MIC (μg/ml) at 24 hours, E. coli” value is above 128 µg/mL. Also, the “MIC (μg/ml) at 24 hours, P. aeruginosa” value against Pseudomonas aeruginosa was above 128 µg/mL.

In the case of `Cl.N=C(NN=CC1=C(Cl)c2cc(F)ccc2OC1)NN=CC1=C(Cl)c2cc(F)ccc2OC1` [NCL 132], in the assay on MRSA, the “MIC (μg/ml) at 24 hours, MRSA 1” value is above 128 µg/mL and the “MIC (μg/ml) at 24 hours, MRSA 2” value is above 128 µg/mL. In the assay with VRE, the “MIC (μg/ml) at 24 hours, VRE 1” value was above 128 µg/mL and the “MIC (μg/ml) at 24 hours, VRE 2” value is above 128 µg/mL. Further, the “MIC (μg/ml) at 24 hours, E. coli” value in the assay on Escherichia coli is above 128 µg/mL. Moreover, the “MIC (μg/ml) at 24 hours, P. aeruginosa” value with Pseudomonas aeruginosa is above 128 µg/mL.

`Cl.N=C(NN=Cc1cc(Br)co1)NN=Cc1cc(Br)co1` [NCL 133]: in the assay on MRSA, the “MIC (μg/ml) at 24 hours, MRSA 1” value was above 128 µg/mL and the “MIC (μg/ml) at 24 hours, MRSA 2” value was above 128 µg/mL. For the same compound, in the assay on VRE, the “MIC (μg/ml) at 24 hours, VRE 1” value is above 128 µg/mL and the “MIC (μg/ml) at 24 hours, VRE 2” value was above 128 µg/mL. In addition, the “MIC (μg/ml) at 24 hours, E. coli” value in the assay on Escherichia coli was above 128 µg/mL. For the same compound, in the assay with Pseudomonas aeruginosa, the “MIC (μg/ml) at 24 hours, P. aeruginosa” value is above 128 µg/mL.

On to `Cl.N=C(N/N=C/c1ccc(Br)cc1)N/N=C/c1ccc(Br)cc1` [NCL 134], for which, in the assay on MRSA, the “MIC (μg/ml) at 24 hours, MRSA 1” value was above 128 µg/mL and the “MIC (μg/ml) at 24 hours, MRSA 2” value is above 128 µg/mL. Besides, in the assay on VRE, the “MIC (μg/ml) at 24 hours, VRE 1” value is above 128 µg/mL and the “MIC (μg/ml) at 24 hours, VRE 2” value is above 128 µg/mL. Also, the “MIC (μg/ml) at 24 hours, E. coli” value in the assay on Escherichia coli is above 128 µg/mL. The “MIC (μg/ml) at 24 hours, P. aeruginosa” value with Pseudomonas aeruginosa is above 128 µg/mL.

Turning to `COc1cc(Br)c(C=NNC(=N)NN=Cc2cc(OC)c(OC)cc2Br)cc1OC.Cl` [NCL 135], in the assay with MRSA, the “MIC (μg/ml) at 24 hours, MRSA 1” value is above 128 µg/mL and the “MIC (μg/ml) at 24 hours, MRSA 2” value is above 128 µg/mL. In the assay with VRE, the “MIC (μg/ml) at 24 hours, VRE 1” value is above 128 µg/mL and the “MIC (μg/ml) at 24 hours, VRE 2” value is above 128 µg/mL. The “MIC (μg/ml) at 24 hours, E. coli” value against Escherichia coli was above 128 µg/mL. In addition, the “MIC (μg/ml) at 24 hours, P. aeruginosa” value against Pseudomonas aeruginosa is above 128 µg/mL.

With `CCCCc1ccc(C=NNC(=N)NN=Cc2ccc(CCCC)cc2)cc1.Cl` [NCL 136], in the assay on MRSA, the “MIC (μg/ml) at 24 hours, MRSA 1” value stood at 64 µg/mL and the “MIC (μg/ml) at 24 hours, MRSA 2” value amounted to 128 µg/mL. Besides, in the assay with VRE, the “MIC (μg/ml) at 24 hours, VRE 1” value was found to be 32 µg/mL and the “MIC (μg/ml) at 24 hours, VRE 2” value is 128 µg/mL. In addition, the “MIC (μg/ml) at 24 hours, E. coli” value in the assay with Escherichia coli was above 128 µg/mL. In the assay with Pseudomonas aeruginosa, the “MIC (μg/ml) at 24 hours, P. aeruginosa” value is above 128 µg/mL.

Consider `Cl.N=C(NN=Cc1c(Cl)cccc1Cl)NN=Cc1c(Cl)cccc1Cl` [NCL 137], for which, in the assay with MRSA, the “MIC (μg/ml) at 24 hours, MRSA 1” value is above 128 µg/mL and the “MIC (μg/ml) at 24 hours, MRSA 2” value was above 128 µg/mL. In the assay with VRE, the “MIC (μg/ml) at 24 hours, VRE 1” value is above 128 µg/mL and the “MIC (μg/ml) at 24 hours, VRE 2” value is above 128 µg/mL. The “MIC (μg/ml) at 24 hours, E. coli” value in the assay on Escherichia coli was above 128 µg/mL. Besides, the “MIC (μg/ml) at 24 hours, P. aeruginosa” value in the assay with Pseudomonas aeruginosa was above 128 µg/mL.
